Data on one molecule can be found in patent US8252799B2, “Hexahydro-1H-4,7-methanoisoindole-1,3-dione compounds” (Merck Sharp & Dohme Corp., priority 2007, dated 2012).

Bounds are passed on as bounds.

Assay [1] deals with T1, α2A (Homo sapiens, UniProt P08913).
T1 sequence (P08913 1-465): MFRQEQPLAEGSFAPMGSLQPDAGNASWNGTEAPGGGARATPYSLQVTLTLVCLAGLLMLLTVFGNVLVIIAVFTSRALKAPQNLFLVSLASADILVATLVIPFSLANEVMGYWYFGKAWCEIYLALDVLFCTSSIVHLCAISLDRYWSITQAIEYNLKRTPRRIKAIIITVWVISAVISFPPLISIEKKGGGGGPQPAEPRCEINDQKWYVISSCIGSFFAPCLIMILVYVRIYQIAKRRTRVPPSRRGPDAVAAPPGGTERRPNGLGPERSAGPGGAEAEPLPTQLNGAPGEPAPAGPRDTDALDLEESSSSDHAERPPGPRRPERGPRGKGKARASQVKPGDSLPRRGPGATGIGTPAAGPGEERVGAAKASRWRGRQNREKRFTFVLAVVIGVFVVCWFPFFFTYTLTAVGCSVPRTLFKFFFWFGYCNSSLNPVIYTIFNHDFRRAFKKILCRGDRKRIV
The experiment in a line: Functional Potency (IC50) on Human Receptors: α2A. It is filed as biochemical. Particulars: human receptor.

The target of the next assay is D3 (Homo sapiens, UniProt P35462). The experiment in a line: In Vitro Affinity (Ki) on Human Receptors: D3. It is filed as binding. Particulars: human receptor.
D3, sequence (P35462 whole entry): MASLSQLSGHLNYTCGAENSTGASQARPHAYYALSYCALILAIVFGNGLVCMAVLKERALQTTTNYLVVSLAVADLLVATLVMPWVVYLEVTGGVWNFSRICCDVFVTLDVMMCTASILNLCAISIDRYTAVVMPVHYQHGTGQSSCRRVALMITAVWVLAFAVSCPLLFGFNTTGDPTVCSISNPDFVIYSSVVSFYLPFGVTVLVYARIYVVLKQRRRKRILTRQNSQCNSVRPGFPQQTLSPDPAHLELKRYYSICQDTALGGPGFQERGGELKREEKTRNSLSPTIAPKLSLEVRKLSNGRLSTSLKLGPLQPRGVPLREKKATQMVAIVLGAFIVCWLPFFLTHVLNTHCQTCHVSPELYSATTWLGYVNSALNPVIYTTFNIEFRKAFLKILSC
Assay [2] deals with T2, 5HT2A (Homo sapiens, UniProt P28223). Nature of the assay: In Vitro Affinity (Ki) on Human Receptors: 5HT2A. It is filed as binding. Particulars: human receptor.
T2 sequence (P28223 whole entry): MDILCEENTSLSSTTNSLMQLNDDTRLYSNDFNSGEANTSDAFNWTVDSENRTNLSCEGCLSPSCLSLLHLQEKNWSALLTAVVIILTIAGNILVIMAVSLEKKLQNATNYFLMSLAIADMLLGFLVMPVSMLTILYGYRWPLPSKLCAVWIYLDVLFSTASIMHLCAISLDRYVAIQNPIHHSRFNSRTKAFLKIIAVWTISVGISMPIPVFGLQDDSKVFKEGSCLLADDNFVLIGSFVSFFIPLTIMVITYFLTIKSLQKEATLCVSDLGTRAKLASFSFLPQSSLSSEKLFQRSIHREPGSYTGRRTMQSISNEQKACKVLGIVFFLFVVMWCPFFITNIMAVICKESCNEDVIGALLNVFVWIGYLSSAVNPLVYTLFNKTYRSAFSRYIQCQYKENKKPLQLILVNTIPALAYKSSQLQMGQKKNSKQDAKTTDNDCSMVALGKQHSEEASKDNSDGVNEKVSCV
For a further assay, the target named is T3, 5HT1A (Homo sapiens, UniProt P08908).
T3 sequence (P08908 1-422): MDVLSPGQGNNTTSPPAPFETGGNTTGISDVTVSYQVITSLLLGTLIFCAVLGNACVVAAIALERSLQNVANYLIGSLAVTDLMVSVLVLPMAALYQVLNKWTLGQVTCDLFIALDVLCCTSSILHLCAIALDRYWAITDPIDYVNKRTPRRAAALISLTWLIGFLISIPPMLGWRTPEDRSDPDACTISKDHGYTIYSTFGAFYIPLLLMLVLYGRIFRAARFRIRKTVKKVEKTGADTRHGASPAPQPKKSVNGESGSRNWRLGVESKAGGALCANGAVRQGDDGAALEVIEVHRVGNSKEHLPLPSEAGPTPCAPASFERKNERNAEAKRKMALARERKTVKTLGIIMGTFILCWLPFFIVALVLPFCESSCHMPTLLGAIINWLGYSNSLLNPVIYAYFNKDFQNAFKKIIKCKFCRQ
The experiment in a line: Functional Potency on Human Receptors: 5HT1A. It is filed as biochemical. Particulars: human receptor.

Assay [3] concerns the target T4, H1 (Homo sapiens, UniProt P35367). Nature of the assay: In Vitro Affinity (Ki) on Human Receptors: H1. Particulars: human receptor. It is filed as binding.
Assay [4] deals with T4, H1. Nature of the assay: Functional Potency (IC50) on Human Receptors: H1. Particulars: human receptor. It is filed as biochemical.
A further assay deals with T5, α1D (Homo sapiens, UniProt P25100).
T5 sequence (P25100 1-572): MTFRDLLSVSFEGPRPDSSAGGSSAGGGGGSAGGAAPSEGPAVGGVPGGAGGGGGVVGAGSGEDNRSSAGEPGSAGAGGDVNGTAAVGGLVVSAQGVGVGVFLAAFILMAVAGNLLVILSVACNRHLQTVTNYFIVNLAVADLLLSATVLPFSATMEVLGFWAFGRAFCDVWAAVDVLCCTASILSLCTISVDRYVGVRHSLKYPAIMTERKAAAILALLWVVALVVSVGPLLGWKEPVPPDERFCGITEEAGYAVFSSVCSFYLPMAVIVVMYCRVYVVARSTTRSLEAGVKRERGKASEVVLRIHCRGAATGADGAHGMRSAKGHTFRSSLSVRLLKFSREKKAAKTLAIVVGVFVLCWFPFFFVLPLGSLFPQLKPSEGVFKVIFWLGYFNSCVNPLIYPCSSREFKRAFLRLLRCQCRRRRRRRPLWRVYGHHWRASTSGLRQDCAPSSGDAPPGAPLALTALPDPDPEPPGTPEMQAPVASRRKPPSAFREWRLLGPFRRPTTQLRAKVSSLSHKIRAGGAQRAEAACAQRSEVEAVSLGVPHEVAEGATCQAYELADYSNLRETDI
Nature of the assay: In Vitro Affinity (Ki) on Human Receptors: α1D. It is filed as binding. Particulars: human receptor.

The target of another assay is T6, 5HT1A (native) (Homo sapiens, UniProt P08908).
T6 construct: 5HT1A (native) 8 nM
T6 sequence (P08908 1-422): T3 sequence (P08908 1-422)
The experiment in a line: In Vitro Affinity (Ki) on Human Receptors: 5HT1A (native). Particulars: human receptor. It is filed as binding.

Assay [5] deals with T7, hERG (Homo sapiens, UniProt Q12809). The experiment in a line: Functional Potency (IC50) on Human Receptors: hERG. It is filed as biochemical. (Block of hERG is tested as a sign of cardiac risk.)
T7 sequence (Q12809 whole entry): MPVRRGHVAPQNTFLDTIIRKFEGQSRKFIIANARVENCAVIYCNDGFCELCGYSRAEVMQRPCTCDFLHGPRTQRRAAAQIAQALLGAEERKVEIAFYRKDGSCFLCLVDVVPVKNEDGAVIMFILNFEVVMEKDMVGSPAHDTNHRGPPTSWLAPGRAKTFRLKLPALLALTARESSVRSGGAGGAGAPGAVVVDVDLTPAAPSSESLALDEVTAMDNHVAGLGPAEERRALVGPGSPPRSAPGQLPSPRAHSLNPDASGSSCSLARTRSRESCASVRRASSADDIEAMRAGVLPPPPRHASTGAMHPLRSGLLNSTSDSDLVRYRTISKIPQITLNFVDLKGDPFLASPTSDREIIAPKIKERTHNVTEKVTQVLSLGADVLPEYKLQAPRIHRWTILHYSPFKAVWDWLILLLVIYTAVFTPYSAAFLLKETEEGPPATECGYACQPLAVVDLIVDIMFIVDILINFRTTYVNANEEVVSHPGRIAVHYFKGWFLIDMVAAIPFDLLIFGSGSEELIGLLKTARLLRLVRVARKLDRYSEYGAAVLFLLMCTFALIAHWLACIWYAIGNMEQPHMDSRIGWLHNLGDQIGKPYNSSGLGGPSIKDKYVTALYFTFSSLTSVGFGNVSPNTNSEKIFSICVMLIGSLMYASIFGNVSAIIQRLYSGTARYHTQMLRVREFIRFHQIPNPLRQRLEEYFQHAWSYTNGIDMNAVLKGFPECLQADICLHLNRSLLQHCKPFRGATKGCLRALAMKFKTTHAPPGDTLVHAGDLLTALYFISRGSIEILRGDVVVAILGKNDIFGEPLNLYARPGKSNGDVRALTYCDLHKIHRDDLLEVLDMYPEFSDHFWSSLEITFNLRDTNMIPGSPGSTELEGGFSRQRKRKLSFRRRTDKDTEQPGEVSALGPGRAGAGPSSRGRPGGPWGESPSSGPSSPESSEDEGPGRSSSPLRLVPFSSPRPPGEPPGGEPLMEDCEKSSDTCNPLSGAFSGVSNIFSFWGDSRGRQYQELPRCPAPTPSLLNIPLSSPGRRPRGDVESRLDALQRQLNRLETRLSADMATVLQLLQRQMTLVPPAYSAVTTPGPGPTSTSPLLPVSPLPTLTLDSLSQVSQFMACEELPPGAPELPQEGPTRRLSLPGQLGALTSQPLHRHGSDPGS
The target of assay [6] is T7, hERG. The experiment in a line: In Vitro Affinity (Ki) on Human Receptors: hERG. It is filed as binding.
Assay [7] deals with T8, α2C (Homo sapiens, UniProt P18825).
T8 sequence (P18825 1-462): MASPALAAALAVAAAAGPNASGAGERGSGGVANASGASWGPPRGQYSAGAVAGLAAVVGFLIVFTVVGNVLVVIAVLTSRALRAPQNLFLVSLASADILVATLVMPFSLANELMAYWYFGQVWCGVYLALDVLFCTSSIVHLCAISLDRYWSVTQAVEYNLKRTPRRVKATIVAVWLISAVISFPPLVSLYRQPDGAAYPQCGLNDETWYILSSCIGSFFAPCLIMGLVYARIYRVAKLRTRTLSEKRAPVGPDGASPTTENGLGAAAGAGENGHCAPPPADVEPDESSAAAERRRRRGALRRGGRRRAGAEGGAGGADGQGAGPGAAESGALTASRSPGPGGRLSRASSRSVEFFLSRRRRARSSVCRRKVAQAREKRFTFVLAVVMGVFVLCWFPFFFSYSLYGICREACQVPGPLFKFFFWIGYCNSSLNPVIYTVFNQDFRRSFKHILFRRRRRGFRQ
Nature of the assay: In Vitro Affinity (Ki) on Human Receptors: α2C. Particulars: human receptor. It is filed as binding.

Assay [8] deals with T9, 5HT2C (Homo sapiens, UniProt P28335). Nature of the assay: Functional Potency (IC50) on Human Receptors: 5HT2C. It is filed as biochemical. Particulars: human receptor.
T9 sequence (P28335 33-458): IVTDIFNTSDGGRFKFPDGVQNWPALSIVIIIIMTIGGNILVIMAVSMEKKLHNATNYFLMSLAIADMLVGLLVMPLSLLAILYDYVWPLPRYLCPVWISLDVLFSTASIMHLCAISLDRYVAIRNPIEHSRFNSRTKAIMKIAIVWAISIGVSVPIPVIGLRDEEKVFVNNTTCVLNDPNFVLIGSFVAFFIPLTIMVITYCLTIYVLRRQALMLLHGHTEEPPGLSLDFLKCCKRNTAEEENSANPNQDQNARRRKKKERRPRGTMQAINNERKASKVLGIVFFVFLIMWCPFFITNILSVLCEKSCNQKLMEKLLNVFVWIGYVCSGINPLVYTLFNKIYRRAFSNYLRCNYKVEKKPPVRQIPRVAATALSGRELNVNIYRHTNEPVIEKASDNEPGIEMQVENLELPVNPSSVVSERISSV
The target in the next assay is T10, α1A (Homo sapiens, UniProt P35348).
T10 sequence (P35348 1-466): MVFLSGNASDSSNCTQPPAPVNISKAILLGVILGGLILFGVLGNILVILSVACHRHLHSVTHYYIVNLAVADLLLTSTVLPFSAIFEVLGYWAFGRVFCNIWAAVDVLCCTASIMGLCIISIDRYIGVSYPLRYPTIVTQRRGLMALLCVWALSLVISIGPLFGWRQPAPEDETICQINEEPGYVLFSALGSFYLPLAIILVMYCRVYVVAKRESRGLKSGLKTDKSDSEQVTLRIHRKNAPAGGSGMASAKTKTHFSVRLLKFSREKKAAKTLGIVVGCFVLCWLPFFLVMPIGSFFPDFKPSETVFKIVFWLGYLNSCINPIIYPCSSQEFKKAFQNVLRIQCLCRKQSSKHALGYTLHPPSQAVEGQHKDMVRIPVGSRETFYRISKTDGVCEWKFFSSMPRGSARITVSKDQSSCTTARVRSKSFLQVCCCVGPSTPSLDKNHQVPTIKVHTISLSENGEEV
Nature of the assay: In Vitro Affinity (Ki) on Human Receptors: α1A. Particulars: human receptor. It is filed as binding.

Assay [9] deals with T11, D2 (Homo sapiens, UniProt P14416). The experiment in a line: In Vitro Affinity (Ki) on Human Receptors: D2. It is filed as binding. Particulars: human receptor.
T11 sequence (P14416 whole entry): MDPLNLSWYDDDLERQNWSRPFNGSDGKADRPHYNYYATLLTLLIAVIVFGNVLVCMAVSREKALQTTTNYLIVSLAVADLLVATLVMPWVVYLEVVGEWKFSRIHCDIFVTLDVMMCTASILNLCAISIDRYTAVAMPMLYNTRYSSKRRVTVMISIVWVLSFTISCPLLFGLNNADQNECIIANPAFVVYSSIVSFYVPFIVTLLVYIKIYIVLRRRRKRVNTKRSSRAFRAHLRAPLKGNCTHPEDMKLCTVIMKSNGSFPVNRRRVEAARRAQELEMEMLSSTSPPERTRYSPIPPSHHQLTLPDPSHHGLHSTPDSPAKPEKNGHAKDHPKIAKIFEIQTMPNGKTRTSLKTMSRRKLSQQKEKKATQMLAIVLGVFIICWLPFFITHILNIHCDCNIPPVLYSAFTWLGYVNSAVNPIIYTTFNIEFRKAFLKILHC
For assay [10], the target named is T11, D2. The experiment in a line: Functional Potency (IC50) on Human Receptors: D2. It is filed as biochemical. Particulars: human receptor.
Assay [11] concerns the target T2, 5HT2A. Nature of the assay: Functional Potency (IC50) on Human Receptors: 5HT2A. It is filed as biochemical. Particulars: human receptor.
Assay [12] concerns the target T1, α2A. The experiment in a line: In Vitro Affinity (Ki) on Human Receptors: α2A. It is filed as binding. Particulars: human receptor.
Assay [13] deals with T12, D1 (Homo sapiens, UniProt P21728). Nature of the assay: In Vitro Affinity (Ki) on Human Receptors: D1. It is filed as binding. Particulars: human receptor.
T12 sequence (P21728 whole entry): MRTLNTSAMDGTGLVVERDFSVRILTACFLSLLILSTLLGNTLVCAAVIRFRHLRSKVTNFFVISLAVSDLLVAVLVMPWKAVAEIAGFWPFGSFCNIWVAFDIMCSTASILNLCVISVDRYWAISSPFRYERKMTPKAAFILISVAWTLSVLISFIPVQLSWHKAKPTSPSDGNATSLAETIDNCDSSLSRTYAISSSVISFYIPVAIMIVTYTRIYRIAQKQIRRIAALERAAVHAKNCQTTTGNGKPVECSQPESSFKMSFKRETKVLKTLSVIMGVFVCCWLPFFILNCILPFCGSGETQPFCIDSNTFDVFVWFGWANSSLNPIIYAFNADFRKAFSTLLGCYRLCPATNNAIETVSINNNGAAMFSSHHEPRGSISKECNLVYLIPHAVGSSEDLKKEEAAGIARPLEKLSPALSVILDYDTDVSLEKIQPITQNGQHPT
Assay [14] deals with T9, 5HT2C. Nature of the assay: In Vitro Affinity (Ki) on Human Receptors: 5HT2C. It is filed as binding. Particulars: human receptor.
Assay [15] deals with T12, D1. The experiment in a line: Functional Potency (IC50) on Human Receptors: D1. It is filed as biochemical. Particulars: human receptor.
The target in assay [16] is T8, α2C. Nature of the assay: Functional Potency (IC50) on Human Receptors: α2C. Particulars: human receptor. It is filed as biochemical.

T4 sequence (P35367 whole entry): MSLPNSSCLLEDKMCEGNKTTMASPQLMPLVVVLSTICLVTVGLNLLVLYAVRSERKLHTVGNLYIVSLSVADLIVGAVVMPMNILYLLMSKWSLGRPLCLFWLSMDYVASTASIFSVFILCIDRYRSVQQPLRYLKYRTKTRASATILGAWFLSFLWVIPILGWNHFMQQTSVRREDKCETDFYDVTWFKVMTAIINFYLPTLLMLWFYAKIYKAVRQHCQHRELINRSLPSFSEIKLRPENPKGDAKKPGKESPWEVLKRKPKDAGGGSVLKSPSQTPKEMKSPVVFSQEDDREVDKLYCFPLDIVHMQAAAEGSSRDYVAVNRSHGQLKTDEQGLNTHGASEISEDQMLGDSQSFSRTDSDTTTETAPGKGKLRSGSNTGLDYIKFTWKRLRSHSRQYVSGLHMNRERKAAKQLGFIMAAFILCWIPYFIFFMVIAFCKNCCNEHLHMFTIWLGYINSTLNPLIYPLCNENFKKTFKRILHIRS

As a reminder, the IC50 is the concentration that gives 50% inhibition. Higher therefore signals weaker potency in that assay. By Ki is commonly meant a measure of affinity in units of concentration, obtained from inhibition or displacement. As a reminder, the EC50 is the concentration needed to bring the measured effect to its halfway point. Low readings indicate an effect from little substance, high ones a need for much substance. Consider `C[C@@]1(O)CC2CC1[C@@H]1C(=O)N(CC3CCCC[C@H]3CN3CCN(c4nsc5ccccc45)CC3)C(=O)[C@H]21` (stereo in doubt) [(3aS,4S,5R,7S,7aR)-2-[((1R,2R)-2-{[4-(1,2-benzisothiazol-3-yl)piperazin-1-yl]methyl}cyclohexyl)methyl]-5-hydroxy-5-methylhexahydro-1H-4,7-methanoisoindole-1,3-dione], for which the IC50 at α2A [1] came out at 1220 nM; on H1 [4], 3100 nM; at hERG [5] it was 4000 nM; at 5HT2C [8], 1710 nM; against D2 [10], 25 nM; against 5HT2A [11], 32 nM. Also, the values for the IC50 on D1 [15] and against α2C [16] were 1650 nM and 160 nM, respectively. The Ki was 2 nM at D3; less than 10 nM on 5HT2A [2]; 371 nM on H1 [3]; 82 nM at α1D; 8 nM at 5HT1A (native); 644 nM at hERG [6]. The Ki at α2C [7] was 9 nM; at α1A, 31 nM; at D2 [9], 1 nM; on α2A [12], 59 nM; on D1 [13], 457 nM; at 5HT2C [14], 16 nM. At 5HT1A, this molecule returned an EC50 of 98 nM. The “Functional Potency 5HT1A % max” value on 5HT1A (max response) is given as 77%.
